According to patent US20160287589A1, “SUBSTITUTED-IMIDAZOPYRIDAZINES” (BAYER PHARMA AKTIENGESELLSCHAFT, priority 2013, published 2016):

Columns and labels:
[1] = molecular target: T1, MKNK1 (Homo sapiens, UniProt Q9BUB5, T385D); test: MKNK1 kinase assay (MKNK1 TR-FRET assay); format: biochemical; settings: Table 1a; 10 μM ATP, 15 min preincubation
T1 construct: GST (N); purchased Carna Biosciences 02-145; host or cells: insect cells (baculovirus expression system)
From the text: MKNK1-inhibitory activity of compounds of the present invention was quantified employing the MKNK1 TR-FRET assay as described in the following paragraphs.
(§1) A recombinant fusion protein of Glutathione-S-Transferase (GST, N-terminally) and human full-lengt MKNK1 (amino acids 1-424 and T344D of accession number BAA 19885.1), expressed in insect cells using baculovirus expression system and purified via glutathione sepharose affinity chromatography, was purchased from Carna Biosciences (product no 02-145) and used as enzyme. As substrate for the kinase reaction the biotinylated peptide biotin-Ahx-IKKRKLTRRKSLKG (C-terminus in amide form) was used which can be purchased e.g. form the company Biosyntan (Berlin-Buch, Germany).
For the assay 50 nL of a 100 fold concentrated solution of the test compound in DMSO was pipetted into a black low volume 384 well microtiter plate (Greiner Bio-One, Frickenhausen, Germany), 2 μL of a solution of MKNK1 in aqueous assay buffer [50 mM HEPES pH 7.5, 5 mM magnesium chloride, 1.0 mM dithiothreitol, 0.005% (v/v) Nonidet-P40 (Sigma)] was added and the mixture was incubated for 15 min at 22° C. to allow pre-binding of the test compounds to the enzyme before the start of the kinase reaction. […] The concentration of MKNK1 was adjusted depending of the activity of the enzyme lot and was chosen appropriate to have the assay in the linear range, typical concentrations were in the range of […]. The reaction was stopped by the addition of 5 μL of a solution of TR-FRET detection reagents (5 nM streptavidine-XL665 [Cisbio Bioassays, Codolet, France] and 1 nM anti-ribosomal protein S6 (pSer236)-antibody from Invitrogen [#44921G] and 1 nM LANCE EU-W1024 labeled ProteinG [Perkin-Elmer, product no. AD0071]) in an aqueous EDTA-solution (100 mM EDTA, 0.1% (w/v) bovine serum albumin in 50 mM HEPES pH 7.5).
(§2) The resulting mixture was incubated for 1 h at 22° C. to allow the formation of complex between the phosphorylated biotinylated peptide and the detection reagents. Subsequently the amount of phosphorylated substrate was evaluated by measurement of the resonance energy transfer from the Eu-chelate to the streptavidine-XL. Therefore, the fluorescence emissions at 620 nm and 665 nm after excitation at 350 nm were measured in a TR-FRET reader, e.g. a Rubystar (BMG Labtechnologies, Offenburg, Germany) or a Viewlux (Perkin-Elmer). The ratio of the emissions at 665 nm and at […] was taken as the measure for the amount of phosphorylated substrate. The data were normalised (enzyme reaction without inhibitor=0% inhibition, all other assay components but no enzyme=100% inhibition).

[2] = molecular target: T1, MKNK1; test: MKNK1 kinase high ATP assay (TR-FRET-based); format: biochemical; settings: Table 2a; 2 mM ATP, 15 min preincubation
Procedure: MKNK1 Kinase High ATP Assay
MKNK1-inhibitory activity at high ATP of compounds of the present invention after their preincubation with MKNK1 was quantified employing the TR-FRET-based MKNK1 high ATP assay as described in the following paragraphs.
as §1, with “human full-length” for “human full-lengt”, “was used,” for “was used”, “e.g. from” for “e.g. form”
For the assay 50 nL of a 100 fold concentrated solution of the test compound in DMSO was pipetted into a black low volume 384 well microtiter plate (Greiner Bio-One, Frickenhausen, Germany), 2 μL of a solution of MKNK1 in aqueous assay buffer [50 mM HEPES pH 7.5, 5 mM magnesium chloride, 1.0 mM dithiothreitol, 0.005% (v/v) Nonidet-P40 (Sigma)] was added and the mixture was incubated for 15 min at 22° C. to allow pre-binding of the test compounds to the enzyme before the start of the kinase reaction. Then the kinase reaction was started by the addition of 3 μL of a solution of adenosine-tri-phosphate (ATP, 3.3 mM=>final conc. in the 5 μL assay volume is 2 mM) and substrate (0.1 μM=>final conc. in the 5 μL assay volume is 0.06 μM) in assay buffer and the resulting mixture was incubated for a reaction time of 30 min at 22° C. The concentration of MKNK1 was adjusted depending of the activity of the enzyme lot and was chosen appropriate to have the assay in the linear range, typical concentrations were in the range of 0.003 μg/mL. The reaction was stopped by the addition of 5 μL of a solution of TR-FRET detection reagents (5 nM streptavidine-XL665 [Cisbio Bioassays, Codolet, France] and 1 nM anti-ribosomal protein S6 (pSer236)-antibody from Invitrogen [#44921G] and 1 nM LANCE EU-W1024 labeled ProteinG [Perkin-Elmer, product no. AD0071]) in an aqueous EDTA-solution (100 mM EDTA, 0.1% (w/v) bovine serum albumin in 50 mM HEPES pH 7.5).
as §2

T1 sequence (Q9BUB5 1-424 isoform Q9BUB5-2 T344D): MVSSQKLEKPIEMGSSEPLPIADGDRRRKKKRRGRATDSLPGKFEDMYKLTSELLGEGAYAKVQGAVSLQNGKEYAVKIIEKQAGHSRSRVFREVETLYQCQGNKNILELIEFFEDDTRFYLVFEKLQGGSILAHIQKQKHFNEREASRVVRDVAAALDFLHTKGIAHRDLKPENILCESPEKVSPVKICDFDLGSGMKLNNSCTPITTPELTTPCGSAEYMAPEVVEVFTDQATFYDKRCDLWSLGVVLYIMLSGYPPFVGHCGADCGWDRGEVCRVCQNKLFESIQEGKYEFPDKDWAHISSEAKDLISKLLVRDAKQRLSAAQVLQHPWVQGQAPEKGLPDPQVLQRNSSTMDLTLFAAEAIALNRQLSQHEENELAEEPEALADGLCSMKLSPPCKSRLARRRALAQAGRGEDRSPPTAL

Structure (SMILES) | IC50 [1] [nM] | IC50 [2] [nM]
CC(=O)N[C@H]1C[C@H](Oc2ccc3ncc(-c4cc5ccccc5o4)n3n2)C1 [Example I-11, N-(trans-3-{[3-(1-Benzofuran-2-yl)imidazo[1,2-b]pyridazin-6-yl]oxy}cyclobutyl)-acetamide] | 2.9 | 10
COc1cccc2oc(-c3cnc4ccc(OCCN5CCNC5=O)nn34)cc12 [Example I-12, 1-(2-{[3-(4-methoxy-1-benzofuran-2-yl)imidazo[1,2-b]pyridazin-6-yl]oxy}ethyl)-imidazolidin-2-one] | 3.5 | 10.2
COc1ccc2oc(-c3cnc4ccc(OC[C@@H]5CCC(=O)N5)nn34)cc2c1 [Example I-13, (5S)-5-({[3-(5-methoxy-1-benzofuran-2-yl)imidazo[1,2-b]pyridazin-6-yl]oxy}methyl)pyrrolidin-2-one] | 3.7 | 10.7
O=C(NCCOc1ccc2ncc(-c3cc4ccccc4o3)n2n1)C1CC1 [Example I-15, N-(2-{[3-(1-Benzofuran-2-yl)imidazo[1,2-b]pyridazin-6-yl]oxy}ethyl)-cyclopropanecarboxamide] | 5.6 | 12.5
O=C(c1ccccc1)N1CCOC(COc2ccc3ncc(-c4cc5ccccc5o4)n3n2)C1 (centres unmarked) [Example I-16, [2-({[3-(1-benzofuran-2-yl)imidazo[1,2-b]pyridazin-6-yl]oxy}methyl)morpholin-4-yl](phenyl)methanone] | 4.7 | 13.3
O=C1NCCN1CCOc1ccc2ncc(-c3cc4ccccc4o3)n2n1 [Example I-18, 1-(2-{[3-(1-Benzofuran-2-yl)imidazo[1,2-b]pyridazin-6-yl]oxy}ethyl)-imidazolidin-2-one] | 7.1 | 13.8
COc1cccc2oc(-c3cnc4ccc(OC[C@@H]5CCC(=O)N5)nn34)cc12 [Example I-19, (5S)-5-({[3-(4-Methoxy-1-benzofuran-2-yl)imidazo[1,2-b]pyridazin-6-yl]oxy}-methyl)pyrrolidin-2-one] | 4.5 | 15.4
COc1cccc2oc(-c3cnc4ccc(OC[C@H]5CN(C(=O)C(F)(F)F)CCO5)nn34)cc12 [Example I-20, 2,2,2-Trifluoro-1-[(2R)-2-({[3-(4-methoxy-1-benzofuran-2-yl)imidazo[1,2-b]-pyridazin-6-yl]oxy}methyl)morpholin-4-yl]ethanone] | 7.7 | 15.5
COc1cccc2oc(-c3cnc4ccc(OC[C@H]5CN(C(=O)C(C)(C)C)CCO5)nn34)cc12 [Example I-21, 1-[(2R)-2-({[3-(4-Methoxy-1-benzofuran-2-yl)imidazo[1,2-b]pyridazin-6-yl]-oxy}methyl)morpholin-4-yl]-2,2-dimethylpropan-1-one] | 6.6 | 17.7
O=C1CCCN1CCCOc1ccc2ncc(-c3cc4ccccc4o3)n2n1 [Example I-22, 1-(3-{[3-(1-Benzofuran-2-yl)imidazo[1,2-b]pyridazin-6-yl]oxy}propyl)pyrrolidin-2-one] | 12.6 | 18.6
O=C(N[C@H]1C[C@H](Oc2ccc3ncc(-c4cc5ccccc5o4)n3n2)C1)C(F)(F)F [Example I-23, N-(trans-3-{[3-(1-Benzofuran-2-yl)imidazo[1,2-b]pyridazin-6-yl]oxy}cyclobutyl)-2,2,2-trifluoroacetamide] | 15.7 | 18.8
CC(Oc1ccc2ncc(-c3cc4ccccc4o3)n2n1)C(N)=O (centres unmarked) [Example I-25, 2-{[3-(1-Benzofuran-2-yl)imidazo[1,2-b]pyridazin-6-yl]oxy}propanamide] | 4.7 | 20.8

Now from value to compound:

IC50 [1] [nM] | IC50 [2] [nM] | Structure (SMILES)
3.2 | 9.9 | COC(=O)N1CCC[C@H]1CCOc1ccc2ncc(-c3cc4ccccc4o3)n2n1 [Example I-10, Methyl (2S)-2-(2-{[3-(1-benzofuran-2-yl)imidazo[1,2-b]pyridazin-6-yl]oxy}-ethyl)pyrrolidine-1-carboxylate]
5.1 | 10.9 | CC(C)(C)CC(=O)N1CCOC(COc2ccc3ncc(-c4cc5ccccc5o4)n3n2)C1 (centres unmarked) [Example I-14, 1-[2-({[3-(1-Benzofuran-2-yl)imidazo[1,2-b]pyridazin-6-yl]oxy}methyl)-morpholin-4-yl]-3,3-dimethylbutan-1-one]
4.6 | 13.7 | CC(C)(C)CC(=O)NCCOc1ccc2ncc(-c3cc4ccccc4o3)n2n1 [Example I-17, N-(2-{[3-(1-Benzofuran-2-yl)imidazo[1,2-b]pyridazin-6-yl]oxy}ethyl)-3,3-dimethylbutanamide]
12.5 | 20.7 | NC(=O)COc1ccc2ncc(-c3cc4ccccc4o3)n2n1 [Example I-24, 2-{[3-(1-Benzofuran-2-yl)imidazo[1,2-b]pyridazin-6-yl]oxy}acetamide]
9 | 23 | O=C1CCC(CCOc2ccc3ncc(-c4cc5ccccc5o4)n3n2)N1 (centres unmarked) [Example I-26, 5-(2-{[3-(1-Benzofuran-2-yl)imidazo[1,2-b]pyridazin-6-yl]oxy}ethyl)pyrrolidin-2-one]
7.3 | 23.5 | CC(=O)N1CCOC(COc2ccc3ncc(-c4cc5ccccc5o4)n3n2)C1 (centres unmarked) [Example I-27, 1-[2-({[3-(1-Benzofuran-2-yl)imidazo[1,2-b]pyridazin-6-yl]oxy}methyl)-morpholin-4-yl]ethanone]
9.1 | 29.8 | CC(=O)NCCOc1ccc2ncc(-c3cc4ccccc4o3)n2n1 [Example I-28, N-(2-{[3-(1-Benzofuran-2-yl)imidazo[1,2-b]pyridazin-6-yl]oxy}ethyl)acetamide]
13.1 | 34.1 | O=C1CNC[C@@H](COc2ccc3ncc(-c4cc5ccccc5o4)n3n2)N1 [Example I-29, (6S)-6-({[3-(1-Benzofuran-2-yl)imidazo[1,2-b]pyridazin-6-yl]oxy}methyl)-piperazin-2-one]
10.3 | 34.8 | COCC(=O)NC[C@H](Oc1ccc2ncc(-c3cc4ccccc4o3)n2n1)c1cccnc1 [Example I-30, N-[(2R)-2-{[3-(1-Benzofuran-2-yl)imidazo[1,2-b]pyridazin-6-yl]oxy}-2-(pyridin-3-yl)ethyl]-2-methoxyacetamide]
16.7 | 35.2 | CC(=O)N1CCC[C@H]1CCOc1ccc2ncc(-c3cc4cc(Cl)ccc4o3)n2n1 [Example I-31, 1-[(2S)-2-(2-{[3-(5-Chloro-1-benzofuran-2-yl)imidazo[1,2-b]pyridazin-6-yl]oxy}ethyl)pyrrolidin-1-yl]ethanone]
